Laboratory results published in PMC8854719, “Phase 1A/1B dose-escalation and -expansion study to evaluate the safety, pharmacokinetics, food effects and antitumor activity of pamiparib in advanced solid tumours” (British Journal of Cancer, 2021).
Entries after “also recorded” stand apart in the source; their conditions may differ. Marks after values point to notes of the source that are not given here.

Test: Safety and tolerability: adverse events, dose-limiting toxicities, MTD, RP2D (Phase 1A/1B)
Format: in vivo
Description: This was an open-label, Phase 1, dose-escalation/dose-expansion study, conducted across six study centres in Australia. The dose-escalation phase evaluated twice-daily (BID) and once-daily (QD) dosing, and the dose-expansion phase evaluated the BID RP2D from the dose-escalation phase and food effects (Fig. 1). The food-effects cohort comprised two sequences: fast followed by fed (sequence 1) and fed followed by fast (sequence 2). […] The decision to proceed to the next dose cohort was determined by the Safety Monitoring Committee and followed a modified 3 + 3 escalation scheme. […] When ≥2 DLTs occurred in the first 23 days of a dose level, the next lower dose level was declared the MTD. Safety was monitored and DLTs were assessed in all dose cohorts. […] The food-effects cohort investigated the effects of food on the PK of pamiparib in patients with advanced solid tumours.
The QD dosing regimen was added as an amendment to the protocol with the purpose of exploring the feasibility of a more convenient regimen.
Safety and tolerability were assessed throughout the study by monitoring adverse events (AEs), serious AEs, clinical laboratory measurements and physical examinations. Adverse events were categorised according to their severity (National Cancer Institute Common Terminology Criteria for Adverse Events v4.03) and relationship to the study treatment.

## C[C@]12CCCN1CC1=NNC(=O)c3cc(F)cc4[nH]c2c1c34 [pamiparib]
120 mg BID (n = 5)
  Pyrexia, AE of any grade: 1 (20.0) n (%)
  Treatment-emergent AE: 5 (100.0) n (%)
  Treatment-emergent AE: Grade 3 or higher: 5 (100.0) n (%)
  Treatment-emergent AE: Leading to death: 0 (0.0) n (%)
  Treatment-emergent AE: Leading to dose interruption: 4 (80.0) n (%)
  Treatment-emergent AE: Leading to dose modification: 4 (80.0) n (%)
  Treatment-emergent AE: Leading to dose reduction: 1 (20.0) n (%)
  Treatment-emergent AE: Leading to treatment discontinuation: 2 (40.0) n (%)
  Treatment-emergent AE: Serious: 3 (60.0) n (%)
  Treatment-related AE: 5 (100.0) n (%)
  Treatment-related AE: Grade 3 or higher: 3 (60.0) n (%)
  Treatment-related AE: Leading to death: 0 (0.0) n (%)
  Treatment-related AE: Leading to dose interruption: 3 (60.0) n (%)
  Treatment-related AE: Leading to dose modification: 3 (60.0) n (%)
  Treatment-related AE: Leading to dose reduction: 1 (20.0) n (%)
  Treatment-related AE: Leading to treatment discontinuation: 2 (40.0) n (%)
  Treatment-related AE: Serious: 1 (20.0) n (%)
  Upper respiratory tract infection, AE of any grade: 0 (0.0) n (%)
  Urinary tract infection, AE of any grade: 2 (40.0) n (%)
  Vomiting, AE of any grade: 1 (20.0) n (%)
120 mg BID, two patients, n = 1 each
  Dose-limiting toxicities observed (description): Grade 2 nausea, grade 3 fatigue, and grade 3 paresthesia; also recorded: Grade 2 nausea and Grade 2 anorexia; also recorded: Grade 2 nausea, Grade 3 fatigue and Grade 3 paraesthesia
120 mg QD
  Diarrhea, AE: 50.0%
  Fatigue, AE: 75.0%
  Nausea, AE: 50.0%
120 mg QD (n=8)
  Dose-limiting toxicity: 0 (0.0) n (%)
  Treatment-emergent AE: 8 (100.0) n (%)
  Treatment-emergent AE: Grade 3 or higher: 5 (62.5) n (%)
  Treatment-emergent AE: Leading to death: 0 (0.0) n (%)
  Treatment-emergent AE: Leading to dose interruption: 6 (75.0) n (%)
  Treatment-emergent AE: Leading to dose modification: 6 (75.0) n (%)
  Treatment-emergent AE: Leading to dose reduction: 1 (12.5) n (%)
  Treatment-emergent AE: Leading to treatment discontinuation: 0 (0.0) n (%)
  Treatment-emergent AE: Serious: 2 (25.0) n (%)
  Treatment-related AE: 6 (75.0) n (%)
  Treatment-related AE: Grade 3 or higher: 3 (37.5) n (%)
  Treatment-related AE: Leading to death: 0 (0.0) n (%)
  Treatment-related AE: Leading to dose interruption: 4 (50.0) n (%)
  Treatment-related AE: Leading to dose modification: 4 (50.0) n (%)
  Treatment-related AE: Leading to dose reduction: 1 (12.5) n (%)
  Treatment-related AE: Leading to treatment discontinuation: 0 (0.0) n (%)
  Treatment-related AE: Serious: 0 (0.0) n (%)
160 mg QD
  Diarrhea, AE: 45.5%
  Fatigue, AE: 63.6%
  Nausea, AE: 90.9%
160 mg QD (n=11)
  Dose-limiting toxicity: 1 (9.1)^d n (%)
  Treatment-emergent AE: 11 (100.0) n (%)
  Treatment-emergent AE: Grade 3 or higher: 9 (81.8) n (%)
  Treatment-emergent AE: Leading to death: 0 (0.0) n (%)
  Treatment-emergent AE: Leading to dose interruption: 7 (63.6) n (%)
  Treatment-emergent AE: Leading to dose modification: 7 (63.6) n (%)
  Treatment-emergent AE: Leading to dose reduction: 0 (0.0) n (%)
  Treatment-emergent AE: Leading to treatment discontinuation: 2 (18.2) n (%)
  Treatment-emergent AE: Serious: 4 (36.4) n (%)
  Treatment-related AE: 11 (100.0) n (%)
  Treatment-related AE: Grade 3 or higher: 7 (63.6) n (%)
  Treatment-related AE: Leading to death: 0 (0.0) n (%)
  Treatment-related AE: Leading to dose interruption: 7 (63.6) n (%)
  Treatment-related AE: Leading to dose modification: 7 (63.6) n (%)
  Treatment-related AE: Leading to dose reduction: 0 (0.0) n (%)
  Treatment-related AE: Leading to treatment discontinuation: 2 (18.2) n (%)
  Treatment-related AE: Serious: 1 (9.1) n (%)
160 mg QD, one of 11
  Patients who experienced a DLT: 9%
160 mg QD, one patient
  Dose-limiting toxicities observed (description): grade 2 nausea
101 patients
  Serious AE: anemia: 4.0%
  Serious AE: intestinal obstruction: 4.0%
  Serious AE: malignant gastrointestinal obstruction: 3.0%
